{"source": "paper PMC11696302", "about": "(Nature Communications, 2025)", "molecular_target": "T1, yCPT1 (cholinephosphotransferase) (Saccharomyces cerevisiae, UniProt P17898)", "T1 sequence (P17898 1-393)": "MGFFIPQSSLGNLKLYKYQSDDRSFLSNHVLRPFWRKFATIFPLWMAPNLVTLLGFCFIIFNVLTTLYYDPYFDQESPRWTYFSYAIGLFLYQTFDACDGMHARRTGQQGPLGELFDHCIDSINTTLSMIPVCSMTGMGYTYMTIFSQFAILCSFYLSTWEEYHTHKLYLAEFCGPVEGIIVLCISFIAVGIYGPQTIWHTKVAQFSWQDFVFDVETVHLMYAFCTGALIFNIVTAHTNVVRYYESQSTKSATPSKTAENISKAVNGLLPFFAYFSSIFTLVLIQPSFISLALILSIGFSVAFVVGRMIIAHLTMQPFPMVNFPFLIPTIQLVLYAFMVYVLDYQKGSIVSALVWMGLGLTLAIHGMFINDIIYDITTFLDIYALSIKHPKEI", "assay": "cryo-EM structure", "type": "biochemical"}
{"smiles": "COc1ccc2c(c[n+](C)c3c4cc5c(cc4ccc23)OCO5)c1OC", "note": "[chelerythrine]", "values": [{"measurement": "IC50", "result": 443, "unit": "nM"}]}
